Data: patent US20050148044A1 (priority 1999, published 2005)
Where “and” joins values, the source holds several entries; their conditions need not be identical. Equal entries are not always repeated. Entries after “also recorded” stand apart in the source; their conditions may differ.

What was measured:
[1] = test system: C. perfringens; assay type: cell-based, Clostridium perfringens
[2] = test system: E. coli; assay type: cell-based
[3] = test system: Bacteroides fragilis; assay type: cell-based
[4] = test system: Citrobacter; assay type: cell-based
[5] = test system: C. butyricum; assay type: cell-based, Clostridium butyricum
[6] = test system: Citrobacter; assay type: cell-based; remark: listed apart in the source
[7] = test system: C. perfringens; assay type: cell-based, Clostridium perfringens; remark: listed apart in the source
[8] = test system: E. coli; assay type: cell-based; remark: listed apart in the source
[9] = test system: B. fragilis; assay type: cell-based, Bacteroides fragilis
[10] = test system: C. butyricum; assay type: cell-based, Clostridium butyricum; remark: listed apart in the source
[11] = test system: B. longum; assay type: cell-based; design: key: Ø: without halo; + → +++: intensity of the halo; + → +++: intensity of the halo; + → +++: intensity of the halo; ↓: reduction in the microorganisms (here by 90%)
[12] = test system: Bifidobacterium bifidum; assay type: cell-based; design: key to intensity of the halo / reduction in the microorganisms: Ø: without halo; + → +++: intensity of the halo; + → +++: intensity of the halo; + → +++: intensity of the halo; ↓: reduction in the microorganisms (here by 90%)
[13] = test system: B. dentium; assay type: cell-based; design: key: Ø: without halo; + → +++: intensity of the halo; + → +++: intensity of the halo; + → +++: intensity of the halo; ↓: reduction in the microorganisms (here by 90%)

Compound	colors due to the hydrolysis of the substrate [1]	color of the colonies [2]	relative intensity of the color of the colonies (3 to 0) [2]	relative intensity of the color of the colonies (3 to 0) [3]	relative intensity of the color of the colonies (3 to 0) [1]	color of the colonies [4]	color of the colonies [3]	color of the colonies [1]	relative intensity of the color of the colonies (3 to 0) [4]	further results
OC[C@H]1O[C@@H](Oc2c[nH]c3ccc(Br)c(Cl)c23)[C@H](O)[C@@H](O)[C@@H]1O [X-glu]	difficult to see									
5-bromo-4-chloro-3-indolyl-β-D-galactopyranoside [X-Gal]	difficult to see	all blue	3	2	3	cream-colored				halos around the colonies [1]: blue-gray halos
CC(=O)N[C@H]1[C@H](Oc2c[nH]c3ccc(Br)c(Cl)c23)O[C@H](CO)[C@@H](O)[C@@H]1O [X-acglmn]		cream-colored				cream-colored	cream-colored	cream-colored; also recorded: very slightly greenish cream-colored		
OC[C@H]1O[C@H](Oc2c[nH]c3cc(Cl)c(Br)cc23)[C@H](O)[C@@H](O)[C@H]1O [Mag-α-Gal]		darker or light cream-colored; also recorded: cream-colored				cream-colored; also recorded: darker or light cream-colored		cream-colored and pink		color of the colonies [5]: cream-colored; also recorded: darker or light cream-colored
O=P(O)(O)Oc1c[nH]c2ccc(Br)c(Cl)c12 [X-Phos]		very light greenish cream-colored; also recorded: darker	2 and 3	1 and 2	2		cream-colored when they are isolated, blue in group; also recorded: deep cream-colored, light brown	greenish cream-colored with a slight blue halo	3	color of the colonies [5]: cream-colored; also recorded: cream-colored with a very light halo near the colony and then blue at the periphery; growth of the colonies [5]: did not grow; relative intensity of the color of the colonies (3 to 0) [5]: 2
N[C@@H]1CON=C1O [cycloserine]										growth in the presence of antibiotic [6]: grow; growth in the presence of antibiotic [7]: grow; growth in the presence of antibiotic [8]: grow; growth in the presence of antibiotic [9]: grow; growth in the presence of antibiotic [10]: grow
OC[C@@H]1O[C@@H](Oc2c[nH]c3cc(Cl)c(Br)cc23)[C@@H](O)[C@@H](O)[C@H]1O [Mag-Gal]			2	1	3	cream-colored and pink			1 and 2	growth of the colonies [5]: did not grow; relative intensity of the color of the colonies (3 to 0) [5]: 2
O=C(O)[C@H]1O[C@@H](Oc2c[nH]c3ccc(Br)c(Cl)c23)[C@H](O)[C@@H](O)[C@@H]1O [X-glucu]	difficult to see									
O=P(O)(O)Oc1c[nH]c2cc(Cl)c(Br)cc12 [Mag-Phos]	difficult to see	cream-colored (darker center); also recorded: pink (pink agar)	2 and 3		3 and 2	cream-colored (darker center); also recorded: pink (pink agar)	cream-pink; also recorded: cream-colored with a brownish halo		2 and 3	
ammoniacal iron citrate [AIC]										intensity of the halo [11]: + and ++; bacterial count [12]: reduction in the number of microorganisms; halo around the colonies [12]: more intense; also recorded: became visible; intensity of the halo [12]: + and ++ and +++↓; reduction in the microorganisms [12]: +++↓; intensity of the halo [13]: + and ++
